Earlier results in patent publication US20190076442A1, “PRESERVATIVE FREE PHARMACEUTICAL COMPOSITION FOR OPHTHALMIC ADMINISTRATION CONTAINING BIMATOPROST AND TIMOLOL” (PHARMATHEN S.A., priority 2016, published 2019).
Counter-ions that a name gives are not always drawn.

| Solubility in ethanol (ethyl alcohol) | Solubility in water | Solubility in chloroform (chloroform) | Solubility in cyclohexane (cyclohexane) | Solubility in ether (ether) | Solubility in methanol (methanol) | Solubility in propylene glycol (propylene glycol) | SMILES |
| --- | --- | --- | --- | --- | --- | --- | --- |
| very soluble | slightly soluble |  |  |  |  |  | CCNC(=O)CCC/C=C\C[C@@H]1[C@@H](/C=C/[C@@H](O)CCc2ccccc2)[C@H](O)C[C@@H]1O [Bimatoprost] |
| soluble | soluble | sparingly soluble | insoluble | insoluble | soluble | sparingly soluble | CC(C)(C)NC[C@H](O)COc1nsnc1N1CCOCC1 [Timolol maleate] |
